Results reported in patent publication US20040171680A1, “Treating Syndrome X with substituted tetralins and indanes” (priority 2002, published 2004).
Like-named read-outs stand apart in the source and are kept apart here.

What was measured:
[1] = molecular target: T1, PPARγ (Homo sapiens, UniProt P37231); assay: aP2 Assay for PPAR gamma Agonists (bDNA aP2 mRNA in preadipocytes); type: cell-based; details: for PPARγ FI: fold induction, PPARγ standard: FI = 70.3; for EC50: values in square brackets
T1 construct: Following the challenge of the preadipocytes, cells may be lysed with lysis buffer; endogenous in cells; host or cells: preadipocytes
T1 sequence (P37231 1-505): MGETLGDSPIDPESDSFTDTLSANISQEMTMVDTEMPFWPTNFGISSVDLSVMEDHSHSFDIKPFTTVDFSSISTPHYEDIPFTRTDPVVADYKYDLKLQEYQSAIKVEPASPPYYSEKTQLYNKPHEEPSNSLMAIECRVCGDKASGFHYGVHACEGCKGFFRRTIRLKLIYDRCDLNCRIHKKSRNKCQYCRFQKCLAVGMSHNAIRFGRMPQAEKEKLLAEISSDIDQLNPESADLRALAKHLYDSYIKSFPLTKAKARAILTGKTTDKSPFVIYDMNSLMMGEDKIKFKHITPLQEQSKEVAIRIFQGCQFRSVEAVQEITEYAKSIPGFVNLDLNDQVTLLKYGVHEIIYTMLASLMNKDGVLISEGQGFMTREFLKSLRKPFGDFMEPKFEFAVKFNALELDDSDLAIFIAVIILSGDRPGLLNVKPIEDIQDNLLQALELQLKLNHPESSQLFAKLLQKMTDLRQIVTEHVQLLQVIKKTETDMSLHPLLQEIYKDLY
Excerpt: aP2 Assay for PPAR gamma Agonists
The procedure is described in detail in Burris et al., Molecular Endocrinology, 1999, 13:410, which is hereby incorporated by reference in its entirety, and aP2 assay results of agonist intrinsic activity may be presented as fold increase over vehicle in induction of aP2 mRNA production.
Twenty-four hours after the initial seeding of the 96-well plates by hand (around 20,000/well), the differentiation assay may be initiated. Medium may be removed and replaced with […] of differentiation medium containing vehicle (DMSO) or test compounds. Cells may be returned to incubator for 24 hours culture. At the termination of the challenge, medium may be removed and 100 ul of lysis buffer may be added to initiate the bDNA aP2 mRNA assay. The branched DNA assay may be performed according to the manufacturer's protocol (Bayer Diagnostics; Emeryville, Calif.). Result may be expressed as the fold increase of aP2 mRNA production activated over vehicle controls. EC50's and Emax may be determined by non-linear regression with a sigmoidal fit curve.
Following the challenge of the preadipocytes, cells may be lysed with lysis buffer (Bayer Diagnostics) containing the aP2 oligonucleotides. After a 15 minute incubation at 53° C. or 30 minutes at 37° C. incubator, 70 ul of the lysis buffer from each well may be added to a corresponding capture well (preincubated with 70 ul of blocking buffer (Bayer Diagnostics)). The capture plate may be incubated overnight at 53° C. in a plate incubator (Bayer Diagnostics). After this incubation, the bDNA and labeled probes may be annealed as directed by the manufacturer. Following a 30-minute incubation with the luminescent alkaline phosphatase substrate, dioxitane, the luminescence may be quantitated in a Dynex MLX microtiter plate luminometer. Oligonucleotide probes designed to anneal to the aP2 mRNA and function in the bDNA mRNA detection system are designed with ProbeDesigner software (Bayer Diagnostics). This software package analyzes a target sequence of interest with a series of algorithms in order to determine which regions of the sequence can perform as locations for capture, label, or spacer probe annealing. The sequences of the oligonucleotides are as follows: […]

[2] = system: db/db mice; assay: Oral dosing in female db/db mice; type: in vivo; details: Mus musculus, 120 h, 1.0 mpk, 5 day oral dosing, % change compared to vehicle
Method: The compound was prepared as suspensions in 0.5% hydroxypropylmethylcellulose (Dow Chemical, Midland, Mich.). The dosing volume was 10 mL/kg of body weight. […] Body weight was measured in the mornings on Day 1, prior to dosing, and on Day 12 before bleeding. 18-24 hours after the final dose for each group, the mice were anesthetized with CO2/O2 (70:30) and bled by retro-orbital sinus puncture into micro-tubes containing clog activator and then put in ice. The serum samples were prepared by centrifugation. Serum glucose and triglycerides were determined by using COBAS Mira Plus blood chemistry analyzer (Roche Diagnostics, N.J.). Serum insulin was measured by using ALPCO insulin ELISA kit.
Statistical analysis was performed using the program Prism (Graphpad, Monrovia, Calif.) and performing one-way ANOVA with a Dunnet's multiple comparison test.

[3] = molecular target: T2, PPARα (Rattus norvegicus, UniProt P37230); assay: HD bDNA Assay (HD gene induction); type: cell-based; details: in section F; target not named there, values match the PPARα column; read-out: EC50
T2 construct: H4IIE rat hepatoma cell line was obtained from ATCC; host or cells: H4IIE rat hepatoma cells
T2 sequence (P37230 1-468): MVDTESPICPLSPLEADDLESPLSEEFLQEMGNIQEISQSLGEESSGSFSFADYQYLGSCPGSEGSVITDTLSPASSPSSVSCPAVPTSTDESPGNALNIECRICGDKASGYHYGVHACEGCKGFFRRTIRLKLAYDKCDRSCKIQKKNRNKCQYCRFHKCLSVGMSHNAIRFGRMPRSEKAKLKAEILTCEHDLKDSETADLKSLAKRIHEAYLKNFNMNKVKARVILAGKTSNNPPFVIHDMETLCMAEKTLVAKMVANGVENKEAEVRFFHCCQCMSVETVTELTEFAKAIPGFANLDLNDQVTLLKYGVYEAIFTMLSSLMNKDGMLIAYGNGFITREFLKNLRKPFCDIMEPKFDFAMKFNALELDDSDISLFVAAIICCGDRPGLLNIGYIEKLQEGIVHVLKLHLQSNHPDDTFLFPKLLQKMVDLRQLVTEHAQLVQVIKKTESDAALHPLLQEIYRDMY
Method: HD bDNA Assay H4IIE rat hepatoma cell line was obtained from ATCC. Cells were cultured in 175 cm^2 tissue culture flask or seeded in 96-well plate with (high serum content, 10% fetal bovine serum and 10% calf serum) culture medium and maintained at 37° C. and 5% CO2 throughout study. Twenty-four hours after the initial seeding of the 96-well plate by hand (approximate 100,000/well), the HD gene induction assay was initiated. Media was removed and replaced with 100 ul of low serum culture media (5% charcoal/dextran treated calf serum) containing vehicle (DMSO) or test compounds or standard. Cells returned to incubator for 24 hours culture. At the termination of the challenge, 50 ul lysis buffer with HD gene specific CE, LE, BL probes was added directly into each well to initiate the bDNA HD mRNA assay. The branched DNA assay was performed according to the manufacturer's protocol (Bayer Diagnostics; Emeryville. Calif.). At the end of the assay, the luminescence was quantitated in Dynex MLX microtiter plate luminometer. EC50's were determined by non-linear regression with a sigmoidal fit utilizing Graphpad Prism.

[4] = molecular target: T3, PPARδ (Homo sapiens, UniProt Q03181); assay: Transfection Assay for PPARδ Receptors (PPAR-Gal4 / Gal4-Luciferase reporter in HEK293 cells); type: cell-based; details: for PPARδ FI: fold induction, PPARδ standard: FI = 36.1; for EC50: values in square brackets
T3 construct: a Gal4-Luciferase reporter is co-transfected
T3 sequence (Q03181 171-441 limits assumed): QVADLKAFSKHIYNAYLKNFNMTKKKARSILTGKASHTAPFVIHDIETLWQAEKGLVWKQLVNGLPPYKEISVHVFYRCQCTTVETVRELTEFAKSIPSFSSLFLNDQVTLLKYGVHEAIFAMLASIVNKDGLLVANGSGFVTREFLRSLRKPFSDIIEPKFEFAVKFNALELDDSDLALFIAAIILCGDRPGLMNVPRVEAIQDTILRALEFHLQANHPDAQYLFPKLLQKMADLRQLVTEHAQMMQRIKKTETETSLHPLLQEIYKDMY
Method: Transfection Assay for PPARδ Receptors
HEK293 cells were grown in DMEM/F-12 Media supplemented with 10% FBS and glutamine (GIBCOBRL). The cells were co-transfected with DNA for PPAR-Gal4 receptor and Gal4-Luciferase Reporter using the DMRIE-C Reagent. On the following day, the DNA-containing medium were replaced with 5% Charcoal treated FBS growth medium. After six hours, cells were seeded in 96 well plate and incubated at 37° C. in CO2 incubator overnight. Cells were challenged by test compounds and incubated for 24 hours at 37° C. in 5% CO2 incubator. Luciferase activity was assayed using the Steady-Glo Luciferase Assay Kit from Promega. DMRIE-C Reagent was purchased from GIBCO Cat. No.10459-014. OPTI-MEM I Reduced Serum Medium was purchased from GIBCO Cat. No. 31985. Steady-Glo Luciferase Assay Kit was obtained from Promega Part# E254B.

Compound | PPARγ FI [1] | EC50 [3] [nM] | also measured
CCN(C(=O)Nc1ccc(C(C)C)cc1)C1Cc2ccc(SC(C)(C)C(=O)O)cc2C1 (stereo not shown) [Example 6, 2-{2-[1-Ethyl-3-(4-isopropylphenyl)ureido]indan-5-ylsulfanyl}-2-methylpropionic acid] | 1.9 | 56 | change in vivo at 1 mg/kg ([2]; read-out: Δ BW): -54%; change in vivo at 1 mg/kg ([2]; read-out: Δ Plasma Glucose): -49%; change in vivo at 1 mg/kg ([2]; read-out: Δ Plasma Insulin): -19%; change in vivo at 1 mg/kg ([2]; read-out: Δ Plasma TG): -50%; PPARδ FI [4]: 3.6
CCN(C(=O)Oc1ccc(OC(F)(F)F)cc1)C1CCc2cc(SC(C)(C)C(=O)O)ccc2C1 (stereo not shown) [Example 60, 2-{6-[Ethyl-(4-trifluoromethoxy-phenoxycarbonyl)-amino]-5,6,7,8-tetrahydronaphthalen-2-ylsulfanyl}-2-methyl-propionic acid] | – | 2 | EC50 [1]: > 3000 nM; EC50 [4]: > 3000 nM
CCCCCCN(C(=O)Nc1ccc(OC(F)(F)F)cc1)C1Cc2ccc(SC(C)(C)C(=O)O)cc2C1 (stereo not shown) [Example 14, 2-Methyl-2-{2-[1-hexyl-3-(4-trifluoromethoxyphenyl)ureido]indan-5-ylsulfanyl}propionic acid] | 0.3 | 213 | PPARδ FI [4]: 1.3
CCCCN(C(=O)Nc1ccc(SC(F)(F)F)cc1)C1Cc2ccc(SC(C)(C)C(=O)O)cc2C1 (stereo not shown) [Example 17, 2-Methyl-2-{2-[1-butyl-3-(4-trifluoromethylsulfanylphenyl)ureido]indan-5-ylsulfanyl}propionic acid] | 0.43 | 160 | –
CCCCCCN(C(=O)Nc1ccc(C(C)C)cc1)C1Cc2ccc(SC(C)(C)C(=O)O)cc2C1 (stereo not shown) [Example 13] | 1.2 | 184 | –
CCN(C(=O)Oc1ccc(Cl)cc1)C1CCc2cc(SC(C)(C)C(=O)O)c(Cl)cc2C1 (stereo not shown) [Example 59, 2-{3-Chloro-6-[(4-chloro-phenoxycarbonyl)-ethyl-amino]-5,6,7,8-tetrahydronaphthalen-2-ylsulfanyl}-2-methyl-propionic acid] | – | 390 | EC50 [1]: 1110 nM; EC50 [4]: 655 nM
CCCN(C(=O)Nc1ccc(OC(F)(F)F)cc1)C1Cc2ccc(SC(C)(C)C(=O)O)cc2C1 (stereo not shown) [Example 16, 2-Methyl-2-{2-[1-propyl-3-(4-trifluoromethoxyphenyl)ureido]indan-5-ylsulfanyl}propionic acid] | 0.37 | 158 | –
CCN(C(=O)Nc1ccc(SC(F)(F)F)cc1)C1Cc2ccc(SC(C)(C)C(=O)O)cc2C1 (stereo not shown) [Example 4, 2-{2-[1-Ethyl-3-(4-trifluoromethylsulfanylphenyl)ureido]indan-5-ylsulfanyl}-2-methylpropionic acid] | 3.7 | 37 | change in vivo at 1 mg/kg ([2]; read-out: Δ BW): -11%; change in vivo at 1 mg/kg ([2]; read-out: Δ Plasma Glucose): -49%; change in vivo at 1 mg/kg ([2]; read-out: Δ Plasma Insulin): -13%; change in vivo at 1 mg/kg ([2]; read-out: Δ Plasma TG): -47%
CCN(C(=O)Oc1ccc(C)cc1)C1CCc2cc(SC(C)(C)C(=O)O)c(Cl)cc2C1 (stereo not shown) [Example 58, 2-{3-Chloro-6-[(4-methyl-phenoxycarbonyl)-ethyl-amino]-5,6,7,8-tetrahydronaphthalen-2-ylsulfanyl}-2-methyl-propionic acid] | – | 340 | EC50 [1]: > 3000 nM; EC50 [4]: 613 nM
CCCCCN(C(=O)Nc1ccc(-c2ccccc2)cc1)C1Cc2ccc(SC(C)(C)C(=O)O)cc2C1 (stereo not shown) [Example 12] | 11 | 183 | –
CC(C)(Sc1ccc2c(c1)CC(NC(=O)Nc1ccc(OC(F)(F)F)cc1)C2)C(=O)O (stereo not shown) [Example 18, 2-Methyl-2-{2-[3-(4-trifluoromethoxyphenyl)ureido]indan-5-ylsulfanyl}propionic acid] | 0.31 | 135 | –
CC(C)CCN(C(=O)Nc1ccc(OC(F)(F)F)cc1)C1Cc2ccc(SC(C)(C)C(=O)O)cc2C1 (stereo not shown) [Example 20, 2-Methyl-2-{2-[1-(3-methylbutyl)-3-(4-trifluoromethoxyphenyl)ureido]indan-5-ylsulfanyl}-2-methylpropionic acid] | 0.44 | 106 | –
